We go through 27 compounds from US11802128B2, “Azetidine and pyrrolidine PARP1 inhibitors and uses thereof” (Xinthera, Inc., priority 2021, dated 2023).

Like-named read-outs stand apart in the source and are kept apart here. Where only a bound is given, the exact number is not on record here.

Experiment [1] has as its system DLD-1 BRCA2(−/−) cells. Put plainly: Cell growth inhibition assay (CellTiter-Glo cell viability, 7 days). Conditions: Homo sapiens, 168 h. In kind it is cell-based. The source says:
(§1) The objective of this study is to evaluate the effect of invention compounds on cell proliferation through the cell viability assay in DLD-1 BRCA2(−/−) and parental isogenic pair and MDA-MB-436 (mutated BRCA1) cell lines. The CellTiter-Glo (CTG) based cell viability assay is designed to determine the number of viable cells in the culture because of compound effect, by quantifying ATP, which indicates the presence of metabolically active cells.
(§2) DLD-1 BRCA2(−/−) and parental isogenic pair were cultured in RPMI 1640 supplemented with 10% fetal bovine serum (FBS), and MDA-MB-436 cells were cultured in DMEM supplemented with 10% FBS. Both are culture at 37° C. with 5% CO2. Invention compounds were distributed to the 384 well plate (Corning, 3764) using Echo acoustic liquid handler to form a 1:3 serially diluted final concentration with top dose of 10 or 30 μM. The cells were seeded into the plate in the density of 50 cells/well (DLD-1 parental), 200 cells/well (DLD-1 BRCA2−/−), or 500 cells/well (MDA-MB-436). After a short spun, the cells were cultured in a well moisturized incubator at 37° C. with 5% CO2 for 7 days without disturbance. The cell viability was measured by CellTiter Glo 2.0 assay kit (Promega, G9243), and growth inhibition rate was calculated and plotted against final compound concentration, and the data were fitted in Xfit to generate IC50.
For orientation: Cellular ATP, detected with luciferase, serves as a proxy for viable cell number.

Experiment [2] deals with MDA-MB-436 (mutated BRCA1) cells. The description is as above. In kind it is cell-based. Conditions: Homo sapiens, 168 h, MDA-MB-436, 7 days.
Text: as §1, §2

The target of experiment [3] is PARP1 (Homo sapiens (Human), UniProt P09874). As to the kind of experiment: Biochemical fluorescent polarization (FP) assay, displacement of PARPi-FL. In kind it is binding. To be noted: 20 nM protein, 3 nM PARPi-FL, 4 h at room temperature. Here is the method: (§3) The assay was performed utilizing the following method:
(§4) 100% DMSO was used for the high (with protein) and low (without protein) control samples. 20 nL of compound or DMSO alone was added to individual assay plate wells.
(§5) PARP1 and PARP2 protein were expressed, purified, and diluted in assay buffer containing 50 mM Tris pH 8.0, 0.001% Triton X-100, 10 mM MgCl2, 150 mM NaCl to a final concentration of 20 nM. The PARPi-FL was then added at a final concentration of 3 nM.
(§6) The assay plate is centrifuged at 1000 rpm for 1 min and incubated for 4 h at room temperature.
(§7) The fluorescent polarization is read using an Envision plate reader using the following settings: […]

For experiment [4], the target named is PARP2 (Homo sapiens (Human), UniProt Q9UGN5). Described as above. In kind it is binding. The method, then: as §3, §4, §5, §6, §7
Sequence of PARP2 (Q9UGN5 whole entry): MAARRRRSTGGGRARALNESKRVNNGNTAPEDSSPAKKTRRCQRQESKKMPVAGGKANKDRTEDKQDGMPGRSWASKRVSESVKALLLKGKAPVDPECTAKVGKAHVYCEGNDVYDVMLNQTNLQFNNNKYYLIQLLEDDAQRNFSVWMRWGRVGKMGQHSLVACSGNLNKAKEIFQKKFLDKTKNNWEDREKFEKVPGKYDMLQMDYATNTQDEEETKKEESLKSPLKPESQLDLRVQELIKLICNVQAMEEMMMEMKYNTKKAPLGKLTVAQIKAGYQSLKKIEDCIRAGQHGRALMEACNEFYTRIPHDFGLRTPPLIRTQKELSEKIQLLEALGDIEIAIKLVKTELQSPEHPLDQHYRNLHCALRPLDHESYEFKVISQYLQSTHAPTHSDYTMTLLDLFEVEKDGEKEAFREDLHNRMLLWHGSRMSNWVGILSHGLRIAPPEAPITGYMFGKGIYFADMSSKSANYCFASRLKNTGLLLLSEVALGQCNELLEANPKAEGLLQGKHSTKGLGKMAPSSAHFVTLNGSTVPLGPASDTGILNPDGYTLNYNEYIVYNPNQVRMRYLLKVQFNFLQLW
Setting [5] is: 20 nM protein, 3 nM PARPi-FL, 4 h at room temperature, read-out: IC50 FP PARP2.

Sequence of PARP1 (P09874 whole entry): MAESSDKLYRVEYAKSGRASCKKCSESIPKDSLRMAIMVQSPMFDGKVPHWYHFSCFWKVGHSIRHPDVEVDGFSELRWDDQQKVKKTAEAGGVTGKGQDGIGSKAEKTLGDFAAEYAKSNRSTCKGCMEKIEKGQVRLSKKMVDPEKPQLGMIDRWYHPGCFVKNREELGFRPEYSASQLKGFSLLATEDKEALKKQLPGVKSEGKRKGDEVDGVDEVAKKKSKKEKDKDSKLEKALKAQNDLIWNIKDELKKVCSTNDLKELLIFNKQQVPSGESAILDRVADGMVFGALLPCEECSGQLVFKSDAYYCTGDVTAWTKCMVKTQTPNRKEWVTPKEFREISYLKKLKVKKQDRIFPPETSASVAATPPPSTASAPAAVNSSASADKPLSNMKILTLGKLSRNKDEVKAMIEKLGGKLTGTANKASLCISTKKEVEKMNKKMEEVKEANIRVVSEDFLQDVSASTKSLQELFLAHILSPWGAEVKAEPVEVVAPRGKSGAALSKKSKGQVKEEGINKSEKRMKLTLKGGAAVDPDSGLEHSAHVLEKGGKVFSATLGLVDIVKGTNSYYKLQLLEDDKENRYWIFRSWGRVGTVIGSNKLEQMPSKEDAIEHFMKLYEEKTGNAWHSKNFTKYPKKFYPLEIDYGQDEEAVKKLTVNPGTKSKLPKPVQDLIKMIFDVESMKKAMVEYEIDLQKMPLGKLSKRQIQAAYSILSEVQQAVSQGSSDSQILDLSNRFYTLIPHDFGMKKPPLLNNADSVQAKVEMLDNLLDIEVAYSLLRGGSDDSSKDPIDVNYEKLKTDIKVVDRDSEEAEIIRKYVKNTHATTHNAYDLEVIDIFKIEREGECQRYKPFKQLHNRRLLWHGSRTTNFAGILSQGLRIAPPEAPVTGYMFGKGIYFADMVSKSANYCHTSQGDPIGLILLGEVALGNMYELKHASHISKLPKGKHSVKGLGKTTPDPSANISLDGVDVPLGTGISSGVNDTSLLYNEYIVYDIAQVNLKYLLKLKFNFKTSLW

The EC50 is the concentration that produces a half-maximal response. High values mean a need for much substance, low ones an effect from little substance. A word on the IC50: it is the concentration that gives 50% inhibition. `CCc1cc2ncc(CN3CC[C@@H](Oc4ccc(C(=O)NC5CC5)nc4)C3)cc2[nH]c1=O` [Example 4, N-cyclopropyl-5-{[(3R)-1-[(7-ethyl-6-oxo-5H-1,5-naphthyridin-3-yl)methyl]pyrrolidin-3-yl]oxy}pyridine-2-carboxamide]: the results for the concentration for a half-maximal effect (EC50) in experiment [1] and in experiment [2] were 2 nM and 1.1 nM, respectively. Also, the results for the 50% inhibitory concentration (IC50) in experiment [3] and in experiment [4] (setting [5]) were 5.8 nM and 11 µM, respectively.

Turning to `Cc1cc2ncc(CN3CC[C@@H](Oc4ccc(C(=O)NC5CC5)nc4)C3)cc2[nH]c1=O` [Example 7, N-cyclopropyl-5-{[(3R)-1-[(7-methyl-6-oxo-5H-1,5-naphthyridin-3-yl)methyl]pyrrolidin-3-yl]oxy}pyridine-2-carboxamide], the results for the EC50 in experiment [1] and in experiment [2] were 13 nM and 8.3 nM, respectively. The results for the IC50 in experiment [3] and in experiment [4] (setting [5]) were 7.4 nM and 66 µM, respectively.

On to `CCc1cc2ncc(CN3CC[C@@](C)(Oc4ccc(C(=O)NC)nc4)C3)cc2[nH]c1=O` [Example 12, 5-{[(3R)-1-[(7-ethyl-6-oxo-5H-1,5-naphthyridin-3-yl)methyl]-3-methylpyrrolidin-3-yl]oxy}-N-methylpyridine-2-carboxamide], for which the concentration for a half-maximal effect (EC50) in experiment [1] stood at 83 nM; in experiment [2] it was 36 nM. Further, the half-maximal inhibitory concentration (IC50) in experiment [3] was 6.6 nM; in experiment [4] (setting [5]), 62 µM.

In the case of `CCc1cc2ncc(CN3CC(Nc4ccc(C(=O)NC)nc4)C3)cc2[nH]c1=O` [Example 14, 5-({1-[(7-ethyl-6-oxo-5H-1,5-naphthyridin-3-yl)methyl]azetidin-3-yl}amino)-N-methylpyridine-2-carboxamide], the concentration giving a half-maximal response (EC50) in experiment [1] turned out to be 9.8 nM; in experiment [2] it was 4.1 nM. The 50% inhibitory concentration (IC50) in experiment [3] was 5.2 nM; in experiment [4] (setting [5]) it was 14 µM.

Turning to `CCc1cc2ncc(CN3C[C@H](Oc4ccc(C(=O)NC)nc4)[C@H]3C)cc2[nH]c1=O` [Example 17, 5-{[(2R,3S)-1-[(7-ethyl-6-oxo-5H-1,5-naphthyridin-3-yl)methyl]-2-methylazetidin-3-yl]oxy}-N-methylpyridine-2-carboxamide], the EC50 came to 1.2 nM in experiment [1] and 0.79 nM in experiment [2]. The IC50 in experiment [3] is 7.3 nM; in experiment [4] (setting [5]) it was 21 µM.

Turning to `CCc1cc2ncc(CN3C[C@H](Oc4ccc(C(=O)NC)nc4)[C@@H]3C)cc2[nH]c1=O` [Example 20, 5-(((2S,3S)-1-((7-ethyl-6-oxo-5,6-dihydro-1,5-naphthyridin-3-yl)methyl)-2-methylazetidin-3-yl)oxy)-N-methylpicolinamide], the figures for the EC50 in experiment [1] and in experiment [2] were 40 nM and 35 nM, respectively. The 50% inhibitory concentration (IC50) in experiment [3] was found to be 5.6 nM; in experiment [4] (setting [5]), 19 µM.

Consider `CCc1cc2ncc(CN3CC(Oc4ccc(C(=O)NC5CC5)nc4)C3)cc2[nH]c1=O` [Example 21, N-cyclopropyl-5-({1-[(7-ethyl-6-oxo-5H-1,5-naphthyridin-3-yl)methyl]azetidin-3-yl}oxy)pyridine-2-carboxamide], for which the 50% effective concentration (EC50) came to 1.8 nM in experiment [1] and 1.2 nM in experiment [2]. The half-maximal inhibitory concentration (IC50) amounted to 6.6 nM in experiment [3] and 14 µM in experiment [4] (setting [5]).

Take `CCc1cc2ncc(CN3CC(Oc4ccc(C#N)cc4)C3)cc2[nH]c1=O` [Example 22, 4-({1-[(7-ethyl-6-oxo-5H-1,5-naphthyridin-3-yl)methyl]azetidin-3-yl}oxy)benzonitrile]: the concentration giving a half-maximal response (EC50) was 37 nM in experiment [1] and 27 nM in experiment [2]. For the same compound, the IC50 in experiment [3] stood at 5.1 nM; in experiment [4] (setting [5]), 16 µM.

As for `CCc1cc2ncc(CN3CC(Oc4ccc(C#N)nc4)C3)cc2[nH]c1=O` [Example 24], the values for the EC50 in experiment [1] and in experiment [2] were 13 nM and 24 nM, respectively. For the same compound, the concentration for half-maximal inhibition (IC50) in experiment [3] was 9.1 nM; in experiment [4] (setting [5]), 17 µM.

In the case of `CNC(=O)c1ncc(O[C@@H]2CCN(Cc3cnc4cc(C5CC5)c(=O)[nH]c4c3)C2)cc1F` [Example 25], the EC50 worked out at 36 nM in experiment [1] and 41 nM in experiment [2]. The IC50 was 11 nM in experiment [3] and 25 µM in experiment [4] (setting [5]).

As to `Cc1cc2ncc(CN3CC[C@@H](Oc4cnc(C(=O)NC5CC5)c(F)c4)C3)cc2[nH]c1=O` [Example 26], the concentration giving a half-maximal response (EC50) worked out at 55 nM in experiment [1] and 60 nM in experiment [2]. Besides, the IC50 in experiment [3] was 12 nM; in experiment [4] (setting [5]), greater than 100 µM.

Take `CCc1cc2ncc(CN3CC[C@@H](Oc4cnc(C(=O)NC)c(F)c4)C3)cc2[nH]c1=O` [Example 27]: the EC50 is 19 nM in experiment [1] and 18 nM in experiment [2]. Besides, the IC50 in experiment [3] came to 6.7 nM; in experiment [4] (setting [5]) it was 9.1 µM.

Take `CCc1cc2ncc(CN3CC[C@@H](Oc4ccc(C(=O)NC)nc4C#N)C3)cc2[nH]c1=O` [Example 28]: the EC50 was determined as 15 nM in experiment [1] and 3.3 nM in experiment [2]. The 50% inhibitory concentration (IC50) is 3.9 nM in experiment [3] and greater than 100 µM in experiment [4] (setting [5]).

Regarding `CCc1cc2ncc(CN3CC[C@@H](Oc4ccc(C#N)cn4)C3)cc2[nH]c1=O` [Example 29], the EC50 in experiment [1] was 78 nM; in experiment [2], 140 nM. The results for the half-maximal inhibitory concentration (IC50) in experiment [3] and in experiment [4] (setting [5]) were 11 nM and 72 µM, respectively.

Turning to `CCc1nc2cc(F)c(CN3CC(Oc4ccc(C(=O)NC)nc4)C3)cc2[nH]c1=O` [Example 30], the 50% effective concentration (EC50) amounted to 15 nM in experiment [1] and 47 nM in experiment [2]. Also, the IC50 in experiment [3] is 7.7 nM; in experiment [4] (setting [5]), greater than 100 µM.

On to `CCc1cc2ncc(CN3C[C@H](Oc4ccc(C(=O)NC)nc4)C[C@H]3C)cc2[nH]c1=O` [Example 31], for which the half-maximal effective concentration (EC50) in experiment [1] was found to be 13 nM; in experiment [2], 31 nM. For the same compound, the results for the half-inhibitory concentration (IC50) in experiment [3] and in experiment [4] (setting [5]) were 37 nM and greater than 100 µM, respectively.

Turning to `CCc1nc2cc(F)c(CN3CC[C@@H](Oc4ccc(C(=O)NC)nc4)C3)cc2[nH]c1=O` [Example 32], the EC50 in experiment [1] was 6.4 nM; in experiment [2], 16 nM. Moreover, the IC50 was 6.8 nM in experiment [3] and greater than 100 µM in experiment [4] (setting [5]).

Turning to `CCc1cc2ncc(CN3CC[C@@H](Oc4ccc(C(=O)NC5COC5)nc4)C3)cc2[nH]c1=O` [Example 33], the 50% effective concentration (EC50) in experiment [1] was 4.2 nM; in experiment [2], 3.7 nM. The concentration for half-maximal inhibition (IC50) in experiment [3] turned out to be 5.5 nM; in experiment [4] (setting [5]), 33 µM.

In the case of `CCc1cc2ncc(CN3C[C@H](Oc4ccc(C#N)cn4)[C@H]3C)cc2[nH]c1=O` [Example 34], the EC50 in experiment [1] was 150 nM; in experiment [2], 84 nM. Besides, the figures for the IC50 in experiment [3] and in experiment [4] (setting [5]) were 13 nM and 12 µM, respectively.

For `CNC(=O)c1ccc(O[C@@H]2CCN(Cc3cnc4c(c3)[nH]c(=O)c3ccoc34)C2)cn1` [Example 35], the EC50 in experiment [1] came out at 9.9 nM; in experiment [2], 32 nM. Besides, the IC50 in experiment [3] was 3.6 nM; in experiment [4] (setting [5]) it was greater than 100 µM.

As for `CCc1cc2ncc(CN3C[C@H](Oc4ccc(C#N)nc4)[C@H]3C)cc2[nH]c1=O` [Example 36], the EC50 in experiment [1] came out at 12 nM; in experiment [2], 3.7 nM. Moreover, the concentration for half-maximal inhibition (IC50) in experiment [3] was 5 nM; in experiment [4] (setting [5]) it was 15 µM.

As for `Cc1cc2ncc(CN3C[C@H](Oc4ccc(C#N)nc4)[C@H]3C)cc2[nH]c1=O` [Example 37], the EC50 in experiment [1] amounted to 80 nM; in experiment [2], 66 nM. The IC50 is 4.5 nM in experiment [3] and greater than 100 µM in experiment [4] (setting [5]).

On to `CCc1cc2ncc(CN3C[C@H](Oc4cnc(C(=O)NC)c(F)c4)[C@H]3C)cc2[nH]c1=O` [Example 38], for which the EC50 in experiment [1] stood at 2.9 nM; in experiment [2], 2.3 nM. Further, the IC50 in experiment [3] was 6.1 nM; in experiment [4] (setting [5]) it was 10 µM.

On to `[2H]C([2H])([2H])NC(=O)c1ccc(O[C@H]2CN(Cc3cnc4cc(CC)c(=O)[nH]c4c3)[C@@H]2C)cn1` [Example 39], for which the results for the EC50 in experiment [1] and in experiment [2] were 1.3 nM and 1.1 nM, respectively. The results for the half-maximal inhibitory concentration (IC50) in experiment [3] and in experiment [4] were 4.3 nM and 5.9 µM, respectively.

In the case of `CCc1cc2ncc(CN3CC(n4ccc5nc(C(=O)NC)ccc54)C3)cc2[nH]c1=O` [Example 40], the 50% effective concentration (EC50) in experiment [1] was found to be 180 nM; in experiment [2], 130 nM. Further, the IC50 in experiment [3] came to 5.5 nM; in experiment [4] (setting [5]) it was 32 µM.

For `CNC(=O)c1ccc(O[C@H]2CN(Cc3cnc4cc(C5CC5)c(=O)[nH]c4c3)[C@@H]2C)cn1` [Example 41], the 50% effective concentration (EC50) is 3.2 nM in experiment [1] and 3 nM in experiment [2]. The IC50 in experiment [3] turned out to be 7.6 nM; in experiment [4] (setting [5]), 8.3 µM.

For the compound `C[C@@H]1[C@@H](Oc2ccc(C(=O)NC3CC3)nc2)CN1Cc1cnc2cc(C3CC3)c(=O)[nH]c2c1` [Example 42], the figures for the concentration for a half-maximal effect (EC50) in experiment [1] and in experiment [2] were 2.1 nM and 1.1 nM, respectively. In addition, the figures for the IC50 in experiment [3] and in experiment [4] (setting [5]) were 5.8 nM and 6.3 µM, respectively.
